From US4849416A, “Treatment of conditions requiring enhanced oxygen availability to mammalian tissues” (Rorer Pharmaceutical Corporation, priority 1988, dated 1989)

Tests used:
[1] = system: human red blood cells; assay: Determination of 2,3-diphosphoglyceric acid content in human red blood cells; type: cell-based
Experimental: 2. Determination of 2,3-Diphosphoglyceric Acid Content in Human Red Blood Cells Blood samples from healthy subjects were collected in heparnized tubes and were centrifuged for 10 minutes at 400 xg. The plasma and buffy layer containing while cells and platelets was removed. The red blood cells were washed three times in Krebs Ringer Bicarbonate buffer supplemented with 2.5 mg/ml bovine serum albumin. The washed cells were suspended in the same buffer in a ratio of 1 cell to 4 buffer v/v. The cell suspension was incubated in siliconized glass beakers in the absence and presence of the test compound at 37° C. in air, supplemented with 5% v/v carbon dioxide. After incubation, 1 ml of the blood sample was mixed with 1 ml of 12% w/v trichloroacetic acid. The mixture was left at 4° C. for 10 minutes and then was clarified by centrifugation. The 2,3-DPG content in the supernatant was quantified using a Sigma assay kit based on the method described by Lowry et al, J. Biol. Chem. 239, 18, 1964. Inhibition of 2,3-diphosphoglyceric acid degredation in human red blood cells was also conducted on compounds of the present invention and is shown in Table II for sulfasalazine.

[2] = biological target: T1, 2,3-DPG phosphatase (Homo sapiens, UniProt P07738); assay: 2,3-Diphosphoglycerate phosphatase assay (radiochemical, release of 32P-phosphate from 2,3-DPG); type: biochemical; details: 110 μM 2,3-DPG, 5 μM phosphoglycolate, pH 7.5, 37° C., 20 minutes
T1 sequence (P07738 1-259): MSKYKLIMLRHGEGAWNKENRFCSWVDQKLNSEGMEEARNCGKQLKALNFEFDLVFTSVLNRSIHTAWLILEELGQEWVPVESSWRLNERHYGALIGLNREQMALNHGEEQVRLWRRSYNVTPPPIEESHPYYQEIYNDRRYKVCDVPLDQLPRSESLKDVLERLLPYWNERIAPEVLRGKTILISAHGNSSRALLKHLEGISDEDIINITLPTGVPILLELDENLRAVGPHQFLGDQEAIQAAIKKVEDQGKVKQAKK
Experimental: 1. 2,3-Diphosphoglycerate Phosphatase Assay
The activity of 2,3-DPG phosphatase was determined radiochemically using a method based on Rose et al., (J. Biol. Chem. 245, 3232-3241, 1970). In this method the activity of the phosphatase is measured by determining the release of inorganic phosphate from the substrate, 2,3-DPG. The test compounds were dissolved in dimethyl sulfoxide at 100 times the final concentration used and then added to the reaction mixture at the beginning of the assay period. In the control experiments equivalent concentration of dimethyl sulfoxide was used.
14 μg of 2,3-DPG phosphatase was incubated in 0.2 ml of N-tris-[Hydroxy-methyl]methyl-2-aminoethane-sulfonic acid [TES], at pH 7.5, containing 110 μM ^32 p-labeled 2,3-DPG (having a specific activity of 70 to 200 μCi/μmol), 5 μM phosphoglycolate and 5 μM mercaptoethanol at 37° C. for 20 minutes in the presence and absence of the test compound. at the end of incubation the reaction was stopped by the addition of 0.1 ml of 15% w/v trichloroacetic acid and the sample was centrifuged (Eppendorf microfuge, Model 5413) in order to remove protein preciptitates. Then 0.2 ml of the supernatant was withdrawn and mixed with 0.1 ml of 8 M sulfuric acid, 0.1 ml of 5% w/v ammonium molybdate and 0.6 ml of water. The mixture then was extracted with 2 ml of isobutanol/benzene (1:1,v/v) and then centrifuged to effect separation of the phases. 1 ml of the organic phase containing the extracted ^32 p-phosphate was counted in a scintillation counter (Beckman, Model LS 8,000) using a program for ^32 p radioactivity. The activity of the enzyme was expressed as number of mole phosphate released per minute.
From the data obtained using the radiochemical method, percent inhibition of 2,3-DPG phosphatase was calculated. […] Representative inhibitory activity is shown for sulfasalazine in Table I.

[3] = system: 2,3-diphosphoglycerate phosphatase; details: at optimal concentrations; cited from earlier work

inhibition at 20 µM ([2]; sulfasalazine 20 μM) [%]	inhibition at 100 µM ([2]; sulfasalazine 100 μM) [%]	inhibition at 500 µM ([2]; sulfasalazine 500 μM) [%]	inhibition at 1000 µM ([2]; sulfasalazine 1000 μM) [%]	SMILES	2,3-diphosphoglyceric acid content ([1]; sulfasalazine 0.5 mM, incubation period 0 hrs, 37° C.) [μmole/ml RBC]	2,3-diphosphoglyceric acid content ([1]; sulfasalazine 0.5 mM, incubation period 3 hrs, 37° C. (control 3.7)) [μmole/ml RBC]	2,3-diphosphoglyceric acid content ([1]; sulfasalazine 0.5 mM, incubation period 6 hrs, 37° C. (control 2.4)) [μmole/ml RBC]	2,3-diphosphoglyceric acid content ([1]; sulfasalazine 1.0 mM, incubation period 0 hrs, 37° C.) [μmole/ml RBC]	2,3-diphosphoglyceric acid content ([1]; sulfasalazine 1.0 mM, incubation period 3 hrs, 37° C. (control 3.7)) [μmole/ml RBC]	2,3-diphosphoglyceric acid content ([1]; sulfasalazine 1.0 mM, incubation period 6 hrs, 37° C. (control 2.4)) [μmole/ml RBC]	enhancement of the activity of 2,3-diphosphoglycerate phosphatase [3]
23	57	86	90	O=C(O)c1cc(N=Nc2ccc(S(=O)(=O)Nc3ccccn3)cc2)ccc1O [sulfasalazine, 5-[[p-(2-pyridylsulfamoyl)phenyl]azo]salicyclic acid]	4.4	3.9	3.0	4.4	4.1	3.5	–
–	–	–	–	O=C(O)COP(=O)(O)O [2-Phosphoglycolate]	–	–	–	–	–	–	about 1600 fold
